Data: patent publication US20050059694A1, “New use of 11.28-dioxa-4-azatricyclo [22.3.1.04,9] octacos-18-ene derivatives and pharmaceutical compositions containing them” (Fujisawa Pharmaceutical Co., Ltd., priority 1987, published 2005)
Converted amounts (≈) assume the structure as drawn.

What was measured:
[1] = test system: oxazolone allergy (allergic contact dermatitis, DTH-reaction); experiment: Oxazolone allergy (mouse), topical administration; type: in vivo; conditions: ethanol as solvent, pinna weight difference 24 hours after second exposure
Description: 1. Determination of the activity after topical administration in models of allergic or allergen-induced contact dermatitis (DTH-reaction) 1.1. Oxazolone Allergy (Mouse): 10 μl of a 2% oxazolone solution are applied onto the abdominal skin of mice for sensitization, 8 days later a second exposure with 10 μl of a 2% oxazolone solution is performed by application on the peripheral internal surface of the pinna. 20 minutes and 2 hours after the second exposure has released the challenge reaction, the test solution is applied at the site of the second exposure. Evaluation of the inhibition of inflammation with the test substance is effected by reference to an untreated group treated with the solvent used for dissolving the test substance, alone. 24 hours after the second exposure the animals are killed and the separated pinnae are weighted. The difference in weight between the two pinnae is used for evaluation; the individual differences in the test group and in the solvent control group are statistically compared (by simple variance analysis with subsequent Dunnet test by normal distribution test if normally distributed, otherwise by […] and Wilcoxon-Mann-Whitney's U-test). The activity of the test substance is indicated in %, based on mean values. […] Ethanol is used as solvent.

DNFB contact allergy = experiment: DNFB allergy (swine), topical administration; type: in vivo; conditions: 5% preparation (solution in 15% dimethylformamide, 42.5% ethanol, 42.5% propylenglycol), applied topically 4 times
Description: On the 1st and 3rd day 100 μl each of a 10% DNFB preparation is applied onto the inner surface of the right and, respectively, left thigh. On the 14th day each swine is marked on the right and the left side of the back with circular markings of 5 cm in diameter (8 markings per animal) and 150 μl each of a 0.5% DNFB preparation is applied thereon. The substances are tested either in the form of galenical compositions or of a solution. The carriers are used in each case as placebo controls.
The test products are carefully applied 4 times (first 30 minutes, then 6, 24 and 32 hours after release of the challenge reaction). Prior to each application the test areas are evaluated with respect to reddenning, swelling and consistance. The coloration of the test areas is then determined quantitatively with a reflectometer, repeatedly. From the data on brightness (L*) and saturation (C*) the erythema index is computed according to the following formula: 100−L*×C*. The mean erythema index is a reflection of the activity according to the following formula: [formula]

TPA-induced dermatitis = TPA-induced dermatitis (mouse), topical administration; type: in vivo, NMRI mice; conditions: dimethylacetamide/acetone/ethanol (2/4/4), pinna weight difference 6 hours after irritant
Description: 2. Determination of the Activity after Topical Administration In the Irritant-Induced Dermatitis Model (Mouse) 2.1 TPA-induced Dermatitis: Skin irritation with TPA in test animals is a method for testing substances as to their antiinflammatory activity after local application (Maibach, Lowe, Ed. Models in Dermatology, Vol. 3 [1987] p. 86-92, Karger-Basel). NMRI mice are given 10 μl of a TPA solution on the inner and outer side of the right pinna (2×10 μl/mouse=2×0.5 μg TPA/mouse). The left pinnae remain untreated. Treatment is effected 30 min. after irritation, by application of 2×10 μl of test solution onto the irritated ear surfaces, as described above. The evaluation of the test group is performed by comparison with a group where the right pinna has been treated with only the irritating solution and with the solvent used for the test substance. 6 hours after application of the irritant the animals are killed, the pinnae separated and weighted. The difference in weight of the two pinnae is used for the evaluation, whereby the individual differences of the test groups are statistically compared with the individual differences of the control groups (as under 1.1.). The activity of the test substances is indicated in % on the basis of the average values. The solvent used is a mixture of dimethylacetamide, acetone and ethanol (2/4/4): […]

[2] = test system: dermatitis induced by croton oil; experiment: Dermatitis induced by croton oil (mouse), topical administration; type: in vivo, NMRI mice; conditions: dissolved in irritant solution, pinna weight difference 6 hours after irritant
Description: 2. Determination of the Activity after Topical Administration In the Irritant-Induced Dermatitis Model (Mouse) 2.2. Dermatitis Induced by Croton Oil Croton oil is often used, as TPA, in order to induce an irritant-induced dermatitis on which substances can be tested for their anti-inflammatory activity (Maibach, Love, Ed., Models in Dermatology, Vol. 3[1987]p. 86-92, Karger-Basel). NMRI-mice are given 15 μl of 0.23% croton oil (in a mixture of dimethylacetamide, acetone and ethanol 2/4/4) on the inner side of the right pinna. Treatment is effected simultaneously with the irritation, the test substance being dissolved in the solution of irritant applied at the auricular test site. Evaluation of the test group is performed by comparison of the inflammation with a group receiving only the irritant solution on the pinna. The animals are killed 6 hours after application of the irritant, the pinnae separated and weighted. The difference between the weights of the two individual pinnae is used for evaluation, by statistical comparison of the single differences in the test group with the single differences in the control group (as under 1.1.). The activity of the test substances is indicated in % based on average values.

[3] = test system: human polymorphonuclear neutrophil leukocytes; experiment: Inhibition of FMLP-stimulated oxidative burst (chemiluminescence) in PMNL; type: cell-based; conditions: minimal inhibiting concentration with significant inhibition of all 3 chemiluminescence parameters; FMLP stimulus
Description: (§1) 3. Inhibition of the Oxidative Burst in Human Polymorphonuclear neutrophil leukocytes (inhibition of FMLP—or, respectively, A 23187-stimulated chemiluminescence):
(§2) Polymorphonuclear leukocytes (PMNL) are prepared from human peripheral blood (M. Schaude et al., Mycoses 31 (5) [1988]259-267). Stock solutions of the test substances (500 mg/l) are freshly prepared on the day of experiment in 5% DMSO/RPMI 1640. For the determination of the chemiluminescence (CL) with Biolumat LB 9505 the luminescence indicator DMNH is used. […] The CL-reaction is started by addition of either 100 μl of the peptide FMLP (4×10^−6 M) or of the calcium ionophor A 23187 (4×10^−6 M). […] 3 parameters are used for evaluation of the results: peak intensity of the radiated light, time span up to the peak and surface area under the reaction curve. As minimal inhibiting concentration the concentration of test substance is chosen where a significant inhibition of all 3 parameters can be observed (Table 4).

[4] = test system: human polymorphonuclear neutrophil leukocytes; experiment: Inhibition of A 23187-stimulated oxidative burst (chemiluminescence) in PMNL; type: cell-based; conditions: minimal inhibiting concentration with significant inhibition of all 3 chemiluminescence parameters; calcium ionophor A 23187 stimulus
Description: as §1, §2

[5] = test system: TPA-induced PGE2 release from macrophages; experiment: Inhibition of macrophage activation (TPA-induced PGE2 release); type: cell-based, NMRI mice; conditions: PGE2 release from TPA-stimulated mouse peritoneal macrophages
Description: 4. Inhibition of Macrophage Activation (Inhibition of TPA-induced PGE2 release)
Peritoneal exudate cells of NMRI mice pretreated 3 days earlier with 1.5 ml thioglycolate i.p. are harvested by peritoneal lavage, washed with deficient PBS and resuspended in DMEM medium supplemented with 10% FCS. 1×10^6 cells are transferred to each well of a 24-wells plate, and the cells are left to adhere 4 hours at 37° and 5% CO2. The cells are then washed twice with deficient PBS. The resultant, more than 95% pure macrophage population is stimulated with TPA ([…]) in DMEM-medium devoid of FCS. The conditioned media are centrifuged and the PGE2-contents determined using a ^125I-radioimmunotest. PGE2-release inhibition with the test substances is measured as percentage inhibition compared to the controls.

human keratinocytes = experiment: Inhibition of proliferation of human keratinocytes; type: cell-based
Description: 5. Inhibition of proliferation of human keratinocytes
Cultures of human keratinocytes are obtained by trypsination of human foreskin from newborns or obtained as to EpiPack from Clonetics Corp. (San Diego). The keratinocyte cultures are grown in culture flasks in a supplemented keratinocyte medium (KGM). The passages 3 to 5 of 80-90% confluent keratinocytes are resuspended in KGM at a concentration of 1×10^5 cells/ml, and either 0.1 ml each of this cell suspension is added into a 96-vells microtiter plate or 1 ml each of this cell suspension are added into a 24-wells plate in the presence of test substance. The cells are grown for 48 hours at 37° and 5% CO2. ^3H-thymidine is incorporated during the last 16 hours (microtiter plate, 1 μCi/well), the cells are checked for their morphology, washed thrice with ice-cold, deficient PBS and twice with trichloroacetic acid, solubilized in 100 μl 0.1 N NaOH containing 1% SDS, and the radioactivity is measured. Alternatively, cells from the 24-well plate are trypsinized (trypsin/EDTA), checked for viability by trypan blue exclusion, and triple aliquots are counted in a cell counter.

Question: `C=CC[C@@H]1/C=C(\C)C[C@H](C)C[C@H](OC)[C@H]2O[C@@](O)(C(=O)C(=O)N3CCCC[C@H]3C(=O)O[C@H](/C(C)=C/[C@@H]3CC[C@@H](O)[C@H](OC)C3)[C@H](C)[C@@H](O)CC1=O)[C@H](C)C[C@@H]2OC` [Compound A, 17-Allyl-1,14-dihydroxy-12-[2-(4-hydroxy-3-methoxycyclo-hexyl)-1-methylvinyl]-23,25-dimethoxy-13,19,21,27-tetramethyl-11,28-dioxa-4-azatricyclo[22.3.1.0^4,9]octacos-18-ene-2,3,10,16-tetraone] was tested. Which “% inhibition” value ([1]; 0.0005 % concentration) did it give?
Answer: 35%

Question: And the “% inhibition” value ([1]; 0.002 % concentration)?
Answer: 38%

Question: What about the “% inhibition” value ([1]; 0.005 % concentration) of the same compound?
Answer: 52%

Question: And the “% inhibition” value ([1]; 0.01 % concentration)?
Answer: 65%

Question: And the “% inhibition” value ([1]; 0.13 % concentration)?
Answer: 65%

Question: And the “clinical evaluation of the test sites / activity” value (DNFB contact allergy)?
Answer: the treated areas can hardly be distinguished from the adjacent normal skin

Question: What about the “% inhibition” value (TPA-induced dermatitis; 1.2 % concentration) of the same compound?
Answer: 52%

Question: What about the “% inhibition” value (TPA-induced dermatitis; 3.6 % concentration) of the same compound?
Answer: 56%

Question: And the “% inhibition” value ([2]; 0.4 % concentration)?
Answer: 52%

Question: What about the “% inhibition” value ([2]; 1.2 % concentration) of the same compound?
Answer: 64%

Question: And the “% inhibition” value ([2]; 3.6 % concentration)?
Answer: 85%

Question: What about the “MIC (μM) (FMLP)” value [3] of the same compound?
Answer: 0.005 µM (≈ 0.00402 µg/mL)

Question: What about the “MIC (μM) (A 23187)” value [4] of the same compound?
Answer: 0.05 µM (≈ 0.0402 µg/mL)

Question: What about the inhibition at 1 µM [5] of the same compound?
Answer: 30%

Question: What about the inhibition at 0.5 µM (human keratinocytes; Homo sapiens, Keratinocyte, 0.5 μM, 48 hours, read-out: % inhibition compared to control) of the same compound?
Answer: 57%

Question: And the inhibition at 1 µM (human keratinocytes; Homo sapiens, Keratinocyte, 1 μM, 48 hours, read-out: % inhibition compared to control)?
Answer: 74%

Question: What about the inhibition at 5 µM (human keratinocytes; Homo sapiens, Keratinocyte, 5 μM, 48 hours, read-out: % inhibition compared to control) of the same compound?
Answer: 94%

Question: And the reduction in proliferation (human keratinocytes; concentration range from 0.5 to 5 μM)?
Answer: dose-dependent reduction in proliferation

Question: `CCCC1C=C(C)CC(C)CC(OC)C2OC(O)(C(=O)C(=O)N3CCCCC3C(=O)OC(C(C)=CC3CCC(O)C(OC)C3)C(C)C(O)CC1=O)C(C)CC2OC` (stereo not shown) [Compound B, 1,14-dihydroxy-12-[2-(4-hydroxy-3-methoxycyclohexyl)-1-methylvinyl]-23,25-dimethoxy-13,19,21,27-tetramethyl-17-propyl-11,28-dioxa-4-azatricyclo[22.3.1.0^4,9]octacos-18-ene-2,3,10,16-tetraone] was tested. Which “% inhibition” value ([1]; 0.005 % concentration) did it give?
Answer: 60%

Question: And the “MIC (μM) (FMLP)” value [3]?
Answer: 0.01 µM (≈ 0.00806 µg/mL)

Question: And the “MIC (μM) (A 23187)” value [4]?
Answer: 0.01 µM (≈ 0.00806 µg/mL)

Question: What about the inhibition at 1 µM [5] of the same compound?
Answer: 60%

Question: Which “MIC (μM) (FMLP)” value [3] does the source give for `C=CCC1C=C(C)CC(C)CC(OC)C2OC(O)(C(=O)C(=O)N3CCCCC3C(=O)OC(C(C)=CC3CCC(O)C(OC)C3)C(C)C=CC1=O)C(C)CC2OC` (stereo not shown) [Compound C, 17-allyl-1-hydroxy-12-[2-(4-hydroxy-3-methoxycyclohexyl)-1-methylvinyl]-23,25-dimethoxy-13,19,21,27-tetramethyl-11,28-dioxa-4-azatricyclo[22.3.1.0^4,9]octacosa-14,18-diene-2,3,10,16-tetraone] here?
Answer: 0.5 µM (≈ 0.393 µg/mL)

Question: What about the “MIC (μM) (A 23187)” value [4] of the same compound?
Answer: 5 µM (≈ 3.93 µg/mL)

Question: What about the inhibition at 1 µM [5] of the same compound?
Answer: 60%

Question: With `C=CCC1C=C(C)CC(C)CC(OC)C2OC(O)(C(=O)C(=O)N3CCCCC3C(=O)OC(C(C)=CC3CCC(OC(C)=O)C(OC)C3)C(C)C(OC(C)=O)CC1=O)C(C)CC2OC` (stereo not shown) [Compound D, 14-acetoxy-12-[2-(4-acetoxy-3-methoxycyclohexyl)-1-methylvinyl]-17-allyl-1-hydroxy-23,25-dimethoxy-13,19,21,27-tetramethyl-11,28-dioxa-4-azatricyclo[22.3.1.0^4,9]octacos-18-ene-2,3,10,16-tetraone] as the compound, how does the “MIC (μM) (FMLP)” value [3] read?
Answer: <0.5 µM

Question: What about the “MIC (μM) (A 23187)” value [4] of the same compound?
Answer: 0.5 µM (≈ 0.444 µg/mL)

Question: What does the source list for `C=CCC1C=C(C)CC(C)CC(OC)C2OC(O)(C(=O)C(=O)N3CCCCC3C(=O)OC(C(C)=CC3CCC(OC(C)=O)C(OC)C3)C(C)C(O)CC1=O)C(C)CC2OC` (stereo not shown) [Compound E, 12-[2-(4-acetoxy-3-methoxycyclohexyl)-1-methylvinyl]-17-allyl-1,14-dihydroxy-23,25-dimethoxy-13,19,21,27-tetramethyl-11,28-dioxa-4-azatricyclo[22.3.1.0^4,9]octacos-18-ene-2,3,10,16-tetraone]?
Answer: MIC (μM) (FMLP) [3]: <0.5 µM; MIC (μM) (A 23187) [4]: 0.05 µM (≈ 0.0423 µg/mL)

Question: `COc1ccc2c(c1)c(CC(=O)O)c(C)n2C(=O)c1ccc(Cl)cc1` [Indomethacin, reference compound] was tested. Which “% inhibition” value (TPA-induced dermatitis; 1.2 % concentration) did it give?
Answer: 26%

Question: What about the “% inhibition” value (TPA-induced dermatitis; 3.6 % concentration) of the same compound?
Answer: 31%

Question: And the “% inhibition” value ([2]; 0.4 % concentration)?
Answer: 11%

Question: And the “% inhibition” value ([2]; 1.2 % concentration)?
Answer: 63%

Question: And the “% inhibition” value ([2]; 3.6 % concentration)?
Answer: 96%
